From paper PMC7181660, “A novel specific PERK activator reduces toxicity and extends survival in Huntington's disease models” (Scientific Reports, 2020)

Assays:
STHdh^Q111/111 cells [1] = assay: Toxicity assay: rescue from tunicamycin (ER stress)-induced apoptosis, FACS with propidium iodide (sub-G0/G1); format: cell-based, murine; conditions: for rescue from ER stress-induced apoptosis: 0–100 μM, 48 h Tun exposure (Fig. 1C)
Description: (§1) STHdh^Q111/111 cells (used before[13]) or PERK+/+ or PERK−/− MEFs (kindly provided by David Ron, Univ. Cambridge) were incubated with Tun (10 μg/ml) for 48 h, which results in ER stress-induced cell death. Cells under the same conditions were incubated for the same times, together with Tun, with increasing concentrations of the different PERK modulators (0–120 μM) and the percent of apoptotic cells was measured by FACS cell cycle progression using propidium iodide (PI), considering the fraction beneath G0/G1. The relative apoptosis rate was calculated to be able to compare between compounds and experiments, where for each concentration curve the percent of apoptotic cells was considered 100 at concentration 0 of the PERK modulator, with only Tun. The graphs show the average relative apoptosis rate of at least 3 independent experiments for each compound.
(§2) Cells were washed with PBS and fixed with cold methanol. Before FACS analysis cells were washed with PBS, followed by addition of propidium iodide (PI) solution (10 μg/ml) and analysis by flow cytometry. Cells in sub-G0/G1 were counted as apoptotic/ dead.

PERK (EIF2AK3) = molecular target: T1, PERK (EIF2AK3) (Homo sapiens, UniProt Q9NZJ5); assay: In vitro HotSpot kinase assay on isolated PERK; format: biochemical; conditions: HotSpot Kinase Assay
T1 construct: GST; purchased Life technologies, Carlsbad, CA; host or cells: insect cells
T1 sequence (Q9NZJ5 536-1116): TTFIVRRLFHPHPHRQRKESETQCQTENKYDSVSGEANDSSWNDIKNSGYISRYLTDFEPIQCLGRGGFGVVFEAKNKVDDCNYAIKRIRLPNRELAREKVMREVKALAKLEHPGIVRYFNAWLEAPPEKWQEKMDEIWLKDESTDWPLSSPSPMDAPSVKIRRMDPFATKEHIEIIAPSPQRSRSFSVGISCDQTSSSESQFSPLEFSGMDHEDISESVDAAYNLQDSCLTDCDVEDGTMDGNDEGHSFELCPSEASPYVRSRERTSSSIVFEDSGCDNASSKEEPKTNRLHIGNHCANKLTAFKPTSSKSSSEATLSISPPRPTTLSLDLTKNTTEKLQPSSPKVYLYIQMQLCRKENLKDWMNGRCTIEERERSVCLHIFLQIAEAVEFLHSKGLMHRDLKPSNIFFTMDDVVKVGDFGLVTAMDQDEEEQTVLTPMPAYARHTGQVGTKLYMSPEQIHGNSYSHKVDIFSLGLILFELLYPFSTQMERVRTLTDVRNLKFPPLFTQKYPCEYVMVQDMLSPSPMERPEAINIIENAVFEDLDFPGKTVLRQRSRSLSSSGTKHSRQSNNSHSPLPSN
Description: In vitro kinase assays with purified components and full kinase panel analysis was done at Reaction Biology Corp. (Malvern, PA, USA) using the HotSpot Kinase Assay. Reactions were performed for 20 min at room temp. using ^33P-ATP (Specific activity 10 μCi/μl) with 1 μM total ATP, 20 μM substrate and kinases in the nanomolar range in 20 mM Hepes (pH 7.5), 10 mM MgCl2, 1 mM EGTA, 0.02% Brij35, 0.02 mg/ml BSA, 0.1 mM Na3VO4, 2 mM DTT, 1% DMSO and other required factors depending on the assayed kinase.

WT MEF cells = assay: Rescue from tunicamycin-induced apoptosis in WT MEFs; format: cell-based; conditions: WT MEFs treated with Tun; read-out: IC50 for inhibition of apoptosis
Description: as §1, §2

PERK−/− MEF cells = assay: Rescue from tunicamycin-induced apoptosis in PERK−/− MEFs; format: cell-based; conditions: Tun
Description: as §1, §2

panel of 391 kinases [2] = molecular target: panel of 391 kinases (Homo sapiens, UniProt Q9BQI3); assay: biochemical; format: biochemical; conditions: kinase EIF2AK1; 10-dose IC50 mode; 1 µM ATP; read-out: Control Compound IC50
panel of 391 kinases [3] = molecular target: T2, panel of 391 kinases (Homo sapiens, UniProt P10398); assay: biochemical; format: biochemical; conditions: ARAF; ATP 1 µM; read-out: Control Compound IC50
T2 sequence (P10398 1-606): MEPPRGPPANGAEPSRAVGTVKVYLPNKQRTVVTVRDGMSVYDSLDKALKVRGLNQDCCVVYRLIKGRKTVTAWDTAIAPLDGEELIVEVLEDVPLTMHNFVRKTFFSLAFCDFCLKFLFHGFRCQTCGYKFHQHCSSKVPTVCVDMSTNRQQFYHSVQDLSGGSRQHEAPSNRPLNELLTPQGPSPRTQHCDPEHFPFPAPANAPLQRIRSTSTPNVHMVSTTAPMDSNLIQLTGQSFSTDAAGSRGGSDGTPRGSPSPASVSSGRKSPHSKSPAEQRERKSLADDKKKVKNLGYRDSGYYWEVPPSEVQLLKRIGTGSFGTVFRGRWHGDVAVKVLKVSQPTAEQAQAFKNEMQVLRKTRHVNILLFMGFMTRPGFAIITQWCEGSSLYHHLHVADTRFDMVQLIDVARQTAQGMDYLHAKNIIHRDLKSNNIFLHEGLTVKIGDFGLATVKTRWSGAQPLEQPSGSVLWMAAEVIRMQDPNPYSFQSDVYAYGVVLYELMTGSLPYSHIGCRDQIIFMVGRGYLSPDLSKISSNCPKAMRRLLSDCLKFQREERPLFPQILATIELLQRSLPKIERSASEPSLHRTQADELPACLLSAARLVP

panel of 391 kinases [4] = molecular target: panel of 391 kinases (Homo sapiens, UniProt P68400); assay: biochemical; format: biochemical; conditions: CK2a; ATP 1 µM; read-out: Control Compound IC50
panel of 391 kinases [5] = molecular target: panel of 391 kinases (Homo sapiens, UniProt Q15118); assay: biochemical; format: biochemical; conditions: kinase PDK1/PDHK1; 10-dose IC50 mode; 1 µM ATP; read-out: Control Compound IC50
panel of 391 kinases [6] = molecular target: panel of 391 kinases (Homo sapiens, UniProt Q15119); assay: biochemical; format: biochemical; conditions: kinase PDK2/PDHK2; 10-dose IC50 mode; 1 µM ATP; read-out: Control Compound IC50
panel of 391 kinases [7] = molecular target: panel of 391 kinases (Homo sapiens, UniProt Q15120); assay: biochemical; format: biochemical; conditions: kinase PDK3/PDHK3; 10-dose IC50 mode; 1 µM ATP; read-out: Control Compound IC50
panel of 391 kinases [8] = molecular target: panel of 391 kinases (Homo sapiens, UniProt Q16654); assay: biochemical; format: biochemical; conditions: kinase PDK4/PDKH4; 10-dose IC50 mode; 1 µM ATP; read-out: Control Compound IC50
panel of 391 kinases [9] = molecular target: T3, panel of 391 kinases (Homo sapiens, UniProt Q9NR20); assay: biochemical; format: biochemical; conditions: DYRK4; ATP 1 µM; read-out: Control Compound IC50
T3 sequence (Q9NR20 1-520): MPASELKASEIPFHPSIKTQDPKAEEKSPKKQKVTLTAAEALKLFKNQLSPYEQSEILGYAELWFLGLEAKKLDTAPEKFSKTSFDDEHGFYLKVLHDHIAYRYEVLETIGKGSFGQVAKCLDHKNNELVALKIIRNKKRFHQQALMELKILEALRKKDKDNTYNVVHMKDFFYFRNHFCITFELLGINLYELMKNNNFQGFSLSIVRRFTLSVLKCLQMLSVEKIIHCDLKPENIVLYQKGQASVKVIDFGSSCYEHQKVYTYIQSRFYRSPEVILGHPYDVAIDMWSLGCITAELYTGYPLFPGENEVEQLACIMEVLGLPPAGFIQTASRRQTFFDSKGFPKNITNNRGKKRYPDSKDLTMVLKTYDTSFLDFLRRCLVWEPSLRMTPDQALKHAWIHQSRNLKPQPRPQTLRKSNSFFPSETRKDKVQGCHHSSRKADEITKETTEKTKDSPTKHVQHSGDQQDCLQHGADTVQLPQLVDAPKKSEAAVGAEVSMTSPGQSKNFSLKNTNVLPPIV

panel of 391 kinases [10] = molecular target: panel of 391 kinases (Homo sapiens, UniProt Q9NYL2); assay: biochemical; format: biochemical; conditions: ZAK/MLTK; ATP 1 µM; read-out: Control Compound IC50
panel of 391 kinases [11] = molecular target: panel of 391 kinases (Homo sapiens, UniProt Q9Y572); assay: biochemical; format: biochemical; conditions: RIPK3; ATP 1 µM; read-out: Control Compound IC50
panel of 391 kinases [12] = molecular target: panel of 391 kinases (Homo sapiens, UniProt P37173); assay: biochemical; format: biochemical; conditions: TGFBR2; ATP 1 µM; read-out: Control Compound IC50
STHdh^Q111/111 cells [13] = assay: Apoptosis of STHdh^Q111/111 cells with the NRF2 inhibitor ML385; format: cell-based, murine
Description: as §1
Suppl. Fig. S5. NRF2 activation but not involvement in cell protection by MK-28. A)
Scheme of NRF2 activation by PERK. B) qPCR of HMOX1, a downstream target of NR F2.
Medians +- interquartile range of 3 independent experiments . P values of STHdhQ7/7 MK 5µM […]
presence of Tun and the indicated concentrations of MK-28, plus increasing concentrations of the NRF2 inhibitor ML385. Average of 3 independent experiments +-SD. D) Apoptosis of STHdhQ111/111 cells treated only with increasing concentrations of ML385. […]

panel of 391 kinases [14] = molecular target: panel of 391 kinases (Homo sapiens, UniProt Q96QT4); assay: biochemical; format: biochemical; conditions: kinase TRPM7/CHAK1; 10-dose IC50 mode; 1 µM ATP; read-out: Control Compound IC50
panel of 391 kinases [15] = molecular target: panel of 391 kinases (Homo sapiens, UniProt Q8TDX7); assay: biochemical; format: biochemical; conditions: NEK7; ATP 1 µM; read-out: Control Compound IC50
panel of 391 kinases [16] = molecular target: panel of 391 kinases (Homo sapiens, UniProt Q9HC98); assay: biochemical; format: biochemical; conditions: NEK6; ATP 1 µM; read-out: Control Compound IC50
panel of 391 kinases [17] = molecular target: panel of 391 kinases (Homo sapiens, UniProt P27361); assay: biochemical; format: biochemical; conditions: ERK1; ATP 1 µM; read-out: Control Compound IC50
PERK-P = assay: PERK phosphorylation shift by immunoblot in MEF cells; format: cell-based; conditions: 3 hours, Thap 2 μg/ml
panel of 391 kinases [18] = molecular target: panel of 391 kinases (Homo sapiens, UniProt Q9BYP7); assay: biochemical; format: biochemical; conditions: WNK3; ATP 1 µM; read-out: Control Compound IC50

COc1cc(/C=N\N(C)c2nc(-c3ccccc3)cc(-c3ccc(Br)cc3)n2)ccc1O [A4, reference compound]
reduction of apoptosis (STHdh^Q111/111 cells [1]; 5 μM, 48 h Tun exposure): no significant effect
effect on activity of isolated PERK (PERK (EIF2AK3)): activated PERK (EIF2AK3) in the nanomolar range, although to a small extent

CCN(CC)CCC(=O)N1N=C(c2c(-c3ccccc3)c3cc(Br)ccc3[nH]c2=O)CC1c1ccc(Br)cc1 (centres unmarked) [CCT020312, reference compound]
IC50 (STHdh^Q111/111 cells [1]; STHdh^Q111/111 cells treated with Tun, read-out: IC50 for inhibition of apoptosis): 32.4 µM
protection from apoptosis at lower concentrations (STHdh^Q111/111 cells [1]; below 10 μM, Tun): failed to be protective
IC50 (WT MEF cells): 11.1 µM
protection from ER stress-induced cell death (PERK−/− MEF cells): failed to protect

Cn1cc(-c2ccc3c(c2)CCN3C(=O)Cc2cccc(C(F)(F)F)c2)c2c(N)ncnc21 [GSK606414, 7-methyl-5-(1-{[3-(trifluoromethyl)phenyl]acetyl}-2,3-dihydro-1H-indol-5-yl)-7H-p yrrolo[2,3-d]pyrimidin-4-amine]
effect on activity of isolated PERK (PERK (EIF2AK3)): clear inhibitory effect

Cn1cc(-c2ccc3c(c2)CCN3C(=O)Cc2cccc(C(F)(F)F)c2)c2c(N)ncnc21 [GSK-2606414]
IC50 (panel of 391 kinases [2]): 0.166 µM

O=C1Nc2ccc(I)cc2/C1=C/c1cc(Br)c(O)c(Br)c1 [GW5074]
IC50 (panel of 391 kinases [3]): 0.0293 µM
IC50 (panel of 391 kinases [4]): 0.035 µM
IC50 (panel of 391 kinases [5]): 10.3 µM
IC50 (panel of 391 kinases [6]): 5.52 µM
IC50 (panel of 391 kinases [7]): 1.89 µM
IC50 (panel of 391 kinases [8]): 1.68 µM
IC50 (panel of 391 kinases [9]): 1.14 µM
IC50 (panel of 391 kinases [10]): 1.34 µM
IC50 (panel of 391 kinases [11]): 1.14 µM

c1ccc2c(-c3cnn4cc(-c5ccc(N6CCNCC6)cc5)cnc34)ccnc2c1 [LDN193189]
IC50 (panel of 391 kinases [12]): 0.0896 µM

COc1cc(/C=N\N(C)c2nc(-c3ccccc3)cc(-c3ccccc3)n2)cc(OC)c1 [MK26]
rescue from ER stress-induced apoptosis (STHdh^Q111/111 cells [1]): inactive

COc1ccc(/C=N\N(C)c2nc(-c3ccccc3)cc(-c3ccccc3)n2)cc1O [MK-29]
rescue from ER stress-induced apoptosis (STHdh^Q111/111 cells [1]): inactive

COc1cc(/C=N\N(C)c2nc(-c3ccccc3)cc(-c3ccccc3)n2)cc(OC)c1O [MK-30]
rescue from ER stress-induced apoptosis (STHdh^Q111/111 cells [1]): inactive

Cc1ccccc1C(=O)N1CCc2cc(-c3nc(NC(=O)Cc4ccc5c(c4)OCO5)sc3C)ccc21 [ML385]
reversal of the cytoprotective effect of MK-28 (STHdh^Q111/111 cells [13]; Tun + MK-28 + increasing ML385): did not reverse to any significant extent
toxicity (apoptosis) of ML385 (STHdh^Q111/111 cells [13]; increasing concentrations): caused some toxicity

CCCCCCCCCCCCCCCCn1cc[n+](Cc2ccccc2)c1C [NH125]
IC50 (panel of 391 kinases [14]): 11 µM

O=C1Nc2ccc3ncsc3c2/C1=C/c1cnc[nH]1 [PKR Inhibitor]
IC50 (panel of 391 kinases [15]): 14.8 µM
IC50 (panel of 391 kinases [16]): 5.69 µM

O=C(Nc1ccc2[nH]nc(-c3ccncc3)c2c1)[C@@H]1CCN(CC(=O)N2CCN(c3ccc(-c4ncccn4)cc3)CC2)C1 [SCH772984]
IC50 (panel of 391 kinases [17]): 0.0126 µM

C/C=C(/C)C(=O)O[C@H]1C(C)=C2[C@H]([C@@H]1OC(=O)CCCCCCC)[C@@](C)(OC(C)=O)C[C@H](OC(=O)CCC)[C@@]1(O)[C@H]2OC(=O)[C@@]1(C)O [Thap, thapsigargin, reference compound]
PERK migration shift (PERK-P) (PERK-P): shift of PERK consistent with its phosphorylation

O=C1NC(=O)c2c1c(-c1ccccc1Cl)cc1[nH]c3ccc(O)cc3c21 [Wee-1 Inhibitor]
IC50 (panel of 391 kinases [18]): 1.91 µM
